ChEMBL document CHEMBL1201862, “PubChem BioAssay data set” (2004)
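Protocol summary: plate cells (96-well), add compound at 5 concentrations, incubate 48 h, interpolate endpoints linearly. Here, GI50 denotes the concentration required for 50% inhibition of growth.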 Activity calls are given as the source filed them. Cut-off read from the data, not from the text of the source: active = GI50 up to about 1.1 µM and inactive = higher.

Key:
Assay in all cases: inhibition of tumour cell growth, NCI panel, 48 h
[1] = system: LXFL 529
[2] = system: BT-549
[3] = system: HOP-18
[4] = system: DLD-1
[5] = system: DMS-273
[6] = system: XF498
[7] = system: Hs-578T
[8] = system: SNB-78
[9] = system: RXF 631

| Compound | GI50 [1] | GI50 [2] | GI50 [3] | GI50 [4] | GI50 [5] | GI50 [6] | GI50 [7] | GI50 [8] | GI50 [9] |
| --- | --- | --- | --- | --- | --- | --- | --- | --- | --- |
| C[n+]1ccn2c3nc4ccccc4nc3c([O-])c(C#N)c21 | > 100 µM (inactive) | > 100 µM (inactive) | 84.7 µM (inactive) | < 0.01 µM (active) | > 100 µM (inactive) | > 100 µM (inactive) | > 100 µM (inactive) | > 100 µM (inactive) | – |
| COc1cccc(NC(=O)CC(=O)n2nc(C)c(/N=N/c3ccccc3)c2C)c1 | > 100 µM (inactive) | – | 12 µM (inactive) | > 100 µM (inactive) | > 100 µM (inactive) | 56.9 µM (inactive) | – | > 100 µM (inactive) | > 100 µM (inactive) |
| CCC(COC(=O)CC[C@@H](NC(=O)C(C)NC(=O)C(C)OC1C(O)C(CO)OC(OCc2ccccc2)C1NC(C)=O)C(N)=O)NC1c2ccccc2Nc2cccc([N+](=O)[O-])c21 (some centres undefined) | 41.8 µM (inactive) | – | 69.2 µM (inactive) | > 100 µM (inactive) | > 100 µM (inactive) | > 100 µM (inactive) | – | > 100 µM (inactive) | – |
| COc1cc2c(cc1OC)C(Cl)C(c1ccc(Cl)cc1)=C2Cl (centres undefined) | 4.23 µM (inactive) | – | 15.9 µM (inactive) | 16.3 µM (inactive) | 17.7 µM (inactive) | 3.45 µM (inactive) | – | 13 µM (inactive) | 21.3 µM (inactive) |
| O=C1NP23(OCCO2)Oc2ccccc2C3(C(F)(F)F)O1 (centres undefined) | > 100 µM (inactive) | – | > 100 µM (inactive) | > 100 µM (inactive) | > 100 µM (inactive) | > 100 µM (inactive) | – | > 100 µM (inactive) | – |
| Cn1c(=O)nc2n(-c3ccc(Br)cc3)c3ccccc3nc-2c1=O | 12.2 µM (inactive) | – | 5.6 µM (inactive) | 4.05 µM (inactive) | 1.88 µM (inactive) | 12.1 µM (inactive) | – | 14 µM (inactive) | 4.11 µM (inactive) |
| O=C1CSC(Cc2nc3ccccc3[nH]2)=N1 | 16.3 µM (inactive) | – | 23.4 µM (inactive) | 18.2 µM (inactive) | 15.4 µM (inactive) | 20.4 µM (inactive) | – | 40.5 µM (inactive) | – |
| O=C1c2ccccc2CC1C1(O)C(=O)Nc2c(Cl)cc(Cl)cc21 (centres undefined) | 18.8 µM (inactive) | – | 14.1 µM (inactive) | 53.1 µM (inactive) | 68.4 µM (inactive) | 28.4 µM (inactive) | – | > 100 µM (inactive) | > 100 µM (inactive) |
